Experimental findings from patent US9238034B2, “FN14 antagonists and therapeutic uses thereof” (THE TRANSLATIONAL GENOMICS RESEARCH INSTITUTE, priority 2013, dated 2016) are described below.

Experiment [1] addresses T1, Fn14-TWEAK binding (Homo sapiens, UniProt Q9NP84).
T1 construct: the human Fc fragment-tagged Fn14 extracellular domain (R&D Systems) was captured; purchased R&D Systems (Fn14-Fc); Peprotech (recombinant TWEAK)
T1 sequence (Q9NP84 28-80 limits assumed): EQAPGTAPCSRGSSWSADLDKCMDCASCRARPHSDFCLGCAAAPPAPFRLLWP
The experiment can be described thus: Double sandwich ELISA small molecule screening of TWEAK binding to captured Fn14-Fc. The procedure: Double Sandwich ELISA. sTWEAK and sTWEAK variant proteins were synthesized as described above. The expression level of each IVTT synthesized sTWEAK protein was analyzed by western blot analysis and used in approximately equal amounts in the ELISA. To assay the binding of wild type sTWEAK and sTWEAK variants to Fn14, the human Fc fragment-tagged Fn14 extracellular domain (R&D Systems) was captured in an Immuno 96-microwell white plate by adding 100 μL of 0.025 μg/mL Fn14-Fc to wells coated with goat anti-human Fcγ fragment specific monoclonal antibody. After capture, the wells were washed 3× with Dulbecco's Phosphate Buffered Saline (DPBS) containing 0.05% Tween-20. Unbound sites were blocked by addition of 100 μL of blocking solution containing 0.05% Tween-20, 1% BSA, and 3% normal goat serum (NGS) in DPBS for 1 hr at room temperature. 0.01 μL of sTWEAK or sTWEAK variant made with the human IVTT kit or 2 μL of sTWEAK or sTWEAK variant made with the rabbit IVTT kit was diluted in 100 μL of sample diluent (DPBS+1% BSA+0.005% Tween-20) and then added to the wells for 2 hr followed by addition of 100 μL of 50 ng/mL biotinylated TWEAK detection antibody (R&D Systems) in sample diluent. Following incubation for additional 2 hr at room temperature, wells were washed 3× with DPBS containing 0.05% Tween-20 and bound biotinylated TWEAK antibody was detected by incubation with an HRP-conjugated streptavidin. The total luminescent signal was obtained using Femto ELISA kit (Pierce Biochemical) and compared to the standard curve signal obtained from the binding of 0-4000 pg/mL recombinant TWEAK (Peprotech inc) to Fn14-Fc. Using 5-parameter logistic curve fitting for standard curve analysis (Sigmaplot 11.0, SyStat Software Inc.), binding of sTWEAK or TWEAK variant to Fn14-Fc was determined. The data represents that observed for at least four replicate assays.
The small molecule screening was performed using the ELISA assay described above with minor modifications. Briefly, after capturing Fn14-Fc in the microwell plate, 80 μl of drug solution in sample diluent was added to desired wells and incubated for 2 hrs at room temperature. Subsequently, 20 μL of 2500 pg/mL (5×) TWEAK was added to each well to achieve final TWEAK concentration of 500 pg/mL and incubated for additional 2 hr at room temperature. Bound TWEAK was detected as described in the protocol above. All small molecule inhibitors were screened at 25 μM final concentration (final DMSO concentration of 0.125%) in duplicate. Cyclohexamide, a non-specific small molecule, at 25 μM concentration was used as negative control. The anti-Fn14 antibody ITEM-4, added at 2.5 μg/mL, was used as a positive control for complete blockade of TWEAK binding. Reduction in TWEAK binding due to compound addition or controls was calculated by using standard curve (Separate standard curve was obtained for every screening plate).

Experiment [2] concerns TWEAK-Fn14 signaling pathway. The experiment is described as follows: TWEAK induced Fn14-NF-κB Luc assay, optimized 384-well HTS format. The format is cell-based, human. The following applies: 1000 cells/well, 40 ng/mL TWEAK 8 hr, 1 hr pre-incubation. An excerpt:
Human embryonic kidney cells (HEK293) express low levels of the Fn14 receptor. We developed a cell-based assay for the Fn14-TWEAK pathway signaling events using HEK293 cells that stably co-expresses high levels of full length Fn14 receptor and a firefly luciferase reporter driven by NF-KB-response elements (Fn14-NF-KB-Luc).
We optimized HEK293 Fn14-NF-KB Luc cell line for HTS by testing TWEAK-stimulated Luc-reporting as a function of growth medium, TWEAK concentration, induction time, assay duration, cell density, and DMSO concentration. For example, we seeded HEK293 Fn14-NF-KB-Luc and control cells (HEK293 NFKB-Luc) into a 96-well plate at a density of 10,000 cells/well, in DMEM or Opti-MEM® (Reduced serum media, protein concentration 15 μg/mL) and incubated at 37 C for 24 or 48 h. We then induced them with various concentrations of TWEAK in buffer or buffer alone (PBS+1 mg/mL BSA) for 5 hr and then measured firefly luciferase levels by chemiluminescence (Bright-Glo™ Promega). […] These initial conditions formed the basis for transfer of the assay into a 384-well format and further optimization with respect to cell seeding density, induction time, and TWEAK concentration.
We achieved the same conclusion from both 96-well and 384-well format that signal-to-background and fold-inductions are increased with increasing TWEAK concentration, peaking between 40-80 ng/mL and decreased at 100 ng/mL (FIGS. 20A and 20B). […] These conditions were further refined with respect to cell density (500-2500 cells per well), induction time (4-8 hr), and two TWEAK concentrations over a series of experiments in 384-well formats.
In the majority of seeding density conditions and two different TWEAK concentrations, the assay performance improved with increasing TWEAK induction time. At 8 hours of TWEAK stimulation, the fold induction (S/B) and Z′ factor was approximately 8-fold and 0.8, respectively, and the average % CV was 6.8%. […]

[3] abbreviates: Table 3, first round of screening, 25 μM, average of duplicate, read-out: % Reduction in TWEAK Binding, Average.
Where [4] appears, read: Table 3, first round of screening, 25 μM, replicate 1, read-out: % Reduction in TWEAK Binding, Data 1.
The mark [5] stands for this setting: Table 3, first round of screening, 25 μM, replicate 2, read-out: % Reduction in TWEAK Binding, Data 2.
Where [6] appears, read: Table 5, 25 μM, average of duplicate, read-out: % Reduction in TWEAK Binding, Average.
The mark [7] stands for this setting: Table 5, 25 μM, replicate 1, read-out: % Reduction in TWEAK Binding, Data 1.
The mark [8] stands for this setting: Table 5, 25 μM, replicate 2, read-out: % Reduction in TWEAK Binding, Data 2.
Setting [9] is: first round of screening, 25 μM, read-out: average inhibition in TWEAK-Fn14 binding.
Where [10] appears, read: Table 4, second screening iteration, 25 μM, average of duplicate, read-out: % Reduction in TWEAK Binding, Average.
The mark [11] stands for this setting: Table 4, second screening iteration, 25 μM, replicate 1, read-out: % Reduction in TWEAK Binding, Data 1.
Where [12] appears, read: Table 4, second screening iteration, 25 μM, replicate 2, read-out: % Reduction in TWEAK Binding, Data 2.

Where two headings read alike, the source gives them in different places.

As for `O=C(CSc1nc2c(cnn2-c2ccccc2)c(=O)[nH]1)NCc1ccc2c(c1)OCO2` [Compound G873-0032], the inhibition at 25 µM worked out at 20.4% in experiment [1] (setting [3]); 26.3% in experiment [1] (setting [4]); 14.5% in experiment [1] (setting [5]); 20.4% in experiment [1] (setting [6]); 26.3% in experiment [1] (setting [7]); 14.5% in experiment [1] (setting [8]). For the same compound, the inhibition at 25 µM in experiment [1] (setting [9]) is greater than 15%.
For the compound `Cc1cc(C2CCCN2C(=O)c2cc(-c3ccc4c(c3)OCO4)on2)on1` (stereo not shown) [Compound J004-1091], the inhibition at 25 µM was found to be 15% in experiment [1] (setting [3]); 23.1% in experiment [1] (setting [4]); 6.98% in experiment [1] (setting [5]); 15% in experiment [1] (setting [6]); 23.1% in experiment [1] (setting [7]); 6.98% in experiment [1] (setting [8]). Besides, in experiment [1] (setting [9]), the inhibition at 25 µM was greater than 15%.
`COc1cccc(NC(=O)CSc2nnc(-c3ccc(F)cc3)c(-c3ccc(F)cc3)n2)c1` [Compound K216-0906]: the inhibition at 25 µM in experiment [1] (setting [10]) was 16.6%; in experiment [1] (setting [11]), 17.2%; in experiment [1] (setting [12]), 16%; in experiment [1] (setting [6]), 16.6%; in experiment [1] (setting [7]) it was 17.2%; in experiment [1] (setting [8]) it was 16%.
For the compound `COc1cccc(NC(=O)CSc2nnc(-c3ccc(Cl)cc3)c(-c3ccc(Cl)cc3)n2)c1` [Compound K216-0957], the inhibition at 25 µM in experiment [1] (setting [10]) was 24%; in experiment [1] (setting [11]), 23.8%; in experiment [1] (setting [12]), 24.3%; in experiment [1] (setting [6]) it was 24%; in experiment [1] (setting [7]), 23.8%; in experiment [1] (setting [8]), 24.3%.
Consider `O=C(CSc1nnc(-c2ccccc2)c(-c2ccccc2)n1)Nc1cccc(Cl)c1` [Compound K784-2268], for which the inhibition at 25 µM in experiment [1] (setting [10]) worked out at 17%; in experiment [1] (setting [11]), 24%; in experiment [1] (setting [12]), 10.1%; in experiment [1] (setting [6]), 17%; in experiment [1] (setting [7]) it was 24%; in experiment [1] (setting [8]), 10.1%.
As to `O=C(CSc1nnc(-c2ccccc2)c(-c2ccccc2)n1)Nc1ccccc1Cl` [Compound K784-2269], the “% Reduction in TWEAK Binding, Average” value in experiment [1] (Table 4, second screening iteration, 25 μM, average of duplicate) is on record as 9.52%. In addition, the “% Reduction in TWEAK Binding, Data 1” value in experiment [1] (Table 4, second screening iteration, 25 μM, replicate 1) turned out to be 10.8055%. Also, the “% Reduction in TWEAK Binding, Data 2” value in experiment [1] (Table 4, second screening iteration, 25 μM, replicate 2) was 8.234%.
As for `COc1cccc(NC(=O)CSc2nnc(-c3ccccc3)c(-c3ccccc3)n2)c1` [Compound K784-2273], the inhibition at 25 µM in experiment [1] (setting [10]), in experiment [1] (setting [11]), in experiment [1] (setting [6]) and in experiment [1] (setting [7]) was 10.5% each time.
With `O=C(c1cn(-c2cccc(Cl)c2)nn1)N1CCCC1` [Compound L524-0322], the inhibition at 25 µM in experiment [1] (setting [10]) amounted to 11.6%; in experiment [1] (setting [11]), 17%; in experiment [1] (setting [12]), 6.27%; in experiment [1] (setting [6]), 11.6%; in experiment [1] (setting [7]) it was 17%; in experiment [1] (setting [8]), 6.27%.
As for `O=C(NC1CC1)c1cn(-c2cccc(Cl)c2)nn1` [Compound L524-0361], the inhibition at 25 µM is 15.7% in experiment [1] (setting [10]); 14.7% in experiment [1] (setting [11]); 16.7% in experiment [1] (setting [12]); 15.7% in experiment [1] (setting [6]); 14.7% in experiment [1] (setting [7]); 16.7% in experiment [1] (setting [8]).
For `NC(=O)C1CCCN(c2nc3c(-c4ccccc4)csc3c(=O)[nH]2)C1` (stereo not shown) [Compound Z250-1266], the inhibition at 25 µM in experiment [1] (setting [3]) was determined as 11.8%; in experiment [1] (setting [4]), 16.2%; in experiment [1] (setting [5]), 7.41%; in experiment [1] (setting [6]), 11.8%; in experiment [1] (setting [7]) it was 16.2%; in experiment [1] (setting [8]) it was 7.41%.
Take `Cc1ccc(-c2csc3c(=O)[nH]c(N4CCCC(C(N)=O)C4)nc23)cc1` (stereo not shown) [Compound Z250-1348]: the inhibition at 25 µM in experiment [1] (setting [3]) turned out to be 13.3%; in experiment [1] (setting [4]), 16.6%; in experiment [1] (setting [5]), 9.99%; in experiment [1] (setting [6]), 13.3%; in experiment [1] (setting [7]), 16.6%; in experiment [1] (setting [8]), 9.99%.
As for `C[C@@H]1C[C@H]2[C@@H]3CCC4=CC(=O)C=C[C@]4(C)[C@@]3(F)[C@@H](O)C[C@]2(C)[C@@]1(O)C(=O)CO` [Dexamethasone, dexamethasone], in experiment [2], the “effect on TWEAK induced Fn14-NF-κB Luc signal” value is “no effect”.
